Measured values reported in US9896441B2 (Lycera Corporation, priority 2014, dated 2018).

Assays:
[1] = target: T1, Gal4-RORγ-LBD (Homo sapiens, UniProt P51449); experiment: Gal4-RORγ Luciferase Reporter Assay in HEK-293T Cells; format: cell-based; conditions: HEK-293 cells, luciferase reporter; for Gal4-RORγ Assay Max Response: maximum response
T1 construct: expressed in transfected cells
T1 sequence (P51449 269-508 limits assumed): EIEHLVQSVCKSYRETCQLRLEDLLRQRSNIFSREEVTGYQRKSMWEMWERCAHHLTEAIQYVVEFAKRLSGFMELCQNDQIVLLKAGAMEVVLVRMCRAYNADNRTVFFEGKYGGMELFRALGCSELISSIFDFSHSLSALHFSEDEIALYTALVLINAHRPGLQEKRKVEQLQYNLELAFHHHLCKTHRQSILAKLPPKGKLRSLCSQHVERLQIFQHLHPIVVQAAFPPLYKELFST
Protocol: Assay procedures and results are described below.
In the following protocol, HEK-293 cells were transfected with a construct comprising the Gal4 DNA binding domain fused to the ligand binding domain of RORγ (Gal4-RORγ-LBD) in a pcDNA3.1neo plasmid, and also with a reporter construct comprising pGL4.31 Gal4-luciferase (Promega). Control cells were prepared similarly using empty pcDNA3.1neo and pGL4.31 vectors.
Trans-IT reagent (Mirus, 60 μL) at room temperature was added drop wise to OptiMEM (Invitrogen, 1.5 ml). This reagent mixture was mixed by inversion then incubated for 5 to 30 minutes at room temperature. It then was added to a solution of both expression vectors (5 μg each), mixed, and incubated at room temperature for about 20 minutes. HEK-293 cells were harvested from incubation flasks by removing the media, treating with TrypLE Express (Invitrogen), and incubating until the cells detached from the bottom of the flask (approximately 2-5 minutes). 10 Million cells were collected by centrifugation and re-suspended in 10 mL of Dulbecco's Modified Eagle Medium, High Glucose (DMEM, Invitrogen) containing 10% Fetal Bovine Serum and 100 IU each of penicillin and streptomycin. The re-suspended cells and the transfection mixture were added to a T75 flask, mixed and incubated overnight at 37° C. and 5% CO2.
The cells were harvested as described above, counted, and centrifuged to obtain the desired number of cells, then re-suspended in complete growth media at 0.75×10^6 cells/mL. The RORγ antagonist, ursolic acid, was added to the cells at a final concentration of […]. Cells were plated at 20 µL of cell suspension/well (10,000-15,000 cells/well) in white tissue culture treated 384 well plates. Test compounds were dissolved at 10 mM in DMSO then diluted into complete growth medium to 5× the final intended test concentration. These drug stock solutions, 5 µL/well were added to the tissue culture plate. The final DMSO concentration was 0.2%. The plates were briefly centrifuged then incubated overnight at 37° C. and 5% CO2. To conduct the assay, the tissue culture plates were allowed to equilibrate to room temperature and One-Glo luciferase reagent (Promega, 25 µL/well) was added. The plates were briefly centrifuged then incubated at room temperature for 10 minutes. The luciferase intensity was read on an Envision plate reader (Perkin Elmer). […] The luciferase signal in the absence of ursolic acid or test compound is defined at 100. The Max Response is the upper plateau in the signal as determined by line-fit using a 4-parameter logistic model in PRISM (GraphPad).

[2] = target: T2, RORγ-LBD (Homo sapiens, UniProt P51449); experiment: RORγ-Ligand Binding Domain (LBD) TR-FRET Assay; format: biochemical; conditions: for TR-FRET Assay Max Response: maximum response;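 for TR-FRET Assay Max Response: 665/615 nm signal ratio set to 100 without ursolic acid or test compound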
T2 construct: made in house; host or cells: SF9 cells (baculovirus); used as diluted lysate
T2 sequence (P51449 269-508 limits assumed): T1 sequence (P51449 269-508 limits assumed)
Outline: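 This TR-FRET coactivator assay pairs baculovirus-expressed His-RORγ-LBD (~3 nM final) with biotin-SRC1 LXXLL peptide at 200 nM final in pH 7.0 Tris/KCl/EDTA/DTT/BSA buffer.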

Row | Compound | EC50 ([1]; with ursolic acid) [nM] | EC50 ([2]; RORγ-LBD TR-FRET) [nM] | EC50 ([1]; in presence of ursolic acid) [nM] | EC50 ([2]; RORγ-LBD TR-FRET assay) [nM] | Gal4-RORγ Assay Max Response ([1]; in presence of ursolic acid) | TR-FRET Assay Max Response ([2]; RORγ-LBD TR-FRET assay)
1 | CCOc1nn(CC)cc1S(=O)(=O)N1C[C@H](CCC(=O)OC)Oc2ccc(/C=C/c3ncccc3F)cc21 [Example 89X, (S,E)-methyl 3-(4-((3-ethoxy-1-ethyl-1H-pyrazol-4-yl)-sulfonyl)-6-(2-(3-fluoropyridin-2-yl)vinyl)-3,4-dihydro-2H-benzo[b][1,4]oxazin-2-yl)propanoate] | > 10000 | 500 to 5000 |  |  |  | 
2 | C/C(=C\c1ccc2c(c1)N(S(=O)(=O)c1cccc(C(F)(F)F)c1)[C@H](C)[C@H](O)C2)c1c(F)cccc1Cl (racemic) [Example 171, (2R,3R)-7-((E)-2-(2-Chloro-6-fluorophenyl)prop-1-en-1-yl)-2-methyl-1-((3-(trifluoromethyl)phenyl)sulfonyl)-1,2,3,4-tetrahydroquinolin-3-ol] |  |  | 500 to 5000 | < 500 | ** (a value in the range of greater than 90 to 150) | *** (a value in the range of greater than 150 to 200)
3 | COC(=O)CC[C@H]1CN(S(=O)(=O)c2cccc(C(F)(F)F)c2)c2c(ccc(/C=C(\C)c3c(F)cccc3Cl)c2C)O1 [Example 57, Methyl (S,E)-3-(6-(2-(2-chloro-6-fluorophenyl)prop-1-en-1-yl)-5-methyl-4-((3-(trifluoromethyl)phenyl)sulfonyl)-3,4-dihydro-2H-benzo[b][1,4]oxazin-2-yl)propanoate] | > 10000 | < 500 |  |  |  | 
4 | C[C@@H]1[C@@H](O)Cc2ccc(/C=C/c3c(F)cccc3Cl)cc2N1S(=O)(=O)c1cccc(C(F)(F)F)c1 (racemic) [Example 176, rac-(2R,3S)-7-((E)-2-Chloro-6-fluorostyryl)-2-methyl-1-((3-(trifluoromethyl)phenyl)sulfonyl)-1,2,3,4-tetrahydroquinolin-3-ol] |  |  | 500 to 5000 | < 500 | ** (a value in the range of greater than 90 to 150) | *** (a value in the range of greater than 150 to 200)
5 | CCOc1ncc(C(F)(F)F)cc1S(=O)(=O)N1C[C@H](CCC(=O)N2CCC(C(=O)O)CC2)Oc2ccc(/C=C(\C)c3c(F)cccc3Cl)cc21 [Example 129L, (S,E)-1-(3-(6-(2-(2-chloro-6-fluorophenyl)-prop-1-en-1-yl)-4-((2-ethoxy-5-(trifluoro-methyl)pyridin-3-yl)sulfonyl)-3,4-dihydro-2H-benzo[b][1,4]oxazin-2-yl)propanoyl)-piperidine-4-carboxylic acid] |  |  | < 500 | < 500 | * (a value in the range of 30 to 90) | *** (a value in the range of greater than 150 to 200)
6 | CCOc1nn(CC)cc1S(=O)(=O)N1C[C@H](CCC(=O)OC)Oc2ccc(/C=C/c3cccc(OC)n3)cc21 [Example 89T, (S,E)-methyl 3-(4-((3-ethoxy-1-ethyl-1H-pyrazol-4-yl)-sulfonyl)-6-(2-(6-methoxypyridin-2-yl)vinyl)-3,4-dihydro-2H-benzo[b][1,4]-oxazin-2-yl)propanoate] | > 10000 | > 10000 |  |  |  | 
7 | N#Cc1cccc(/C=C/c2ccc3c(c2)N(S(=O)(=O)c2cccc(C(F)(F)F)c2)C[C@H](CCC(=O)O)O3)c1F [Example 89BW, (S,E)-3-(6-(3-cyano-2-fluorostyryl)-4-((3-(trifluoromethyl)phenyl)sulfonyl)-3,4-dihydro-2H-benzo[b][1,4]oxazin-2-yl)propanoic acid] | > 10000 | < 500 |  |  |  | 
8 | C/C(=C\c1ccc2c(c1)N(S(=O)(=O)c1cccc(C(F)(F)F)c1)C[C@H](CCC(=O)N(C)CC(=O)O)O2)c1c(F)cccc1Cl [Example 129F, (S,E)-N-(3-(6-(2-(2-chloro-6-fluorophenyl)-prop-1-en-1-yl)-4-((3-(trifluoromethyl)phenyl)sulfonyl)-3,4-dihydro-2H-benzo[b][1,4]oxazin-2-yl)propanoyl)-N-methylglycine] |  |  | < 500 | < 500 | *** (a value in the range of greater than 150 to 200) | *** (a value in the range of greater than 150 to 200)
9 | C/C(=C\c1ccc2c(c1)N(S(=O)(=O)c1cccc(C(F)(F)F)c1)C[C@H](CCC(=O)O)O2)c1c(C)noc1C [Example 86AC, (S,E)-3-(6-(2-(3,5-dimethylisoxazol-4-yl)prop-1-en-1-yl)-4-((3-(trifluoromethyl)phenyl)sulfonyl)-3,4-dihydro-2H-benzo[b][1,4]oxazin-2-yl)propanoic acid] | > 10000 | < 500 |  |  |  | 

Further lines, with some results ahead:

Row | EC50 ([1]; with ursolic acid) [nM] | EC50 ([2]; RORγ-LBD TR-FRET) [nM] | EC50 ([1]; in presence of ursolic acid) [nM] | EC50 ([2]; RORγ-LBD TR-FRET assay) [nM] | Compound | Gal4-RORγ Assay Max Response ([1]; in presence of ursolic acid) | TR-FRET Assay Max Response ([2]; RORγ-LBD TR-FRET assay)
10 | < 500 | < 500 |  |  | O=C(O)CC[C@H]1CN(S(=O)(=O)c2cc(C(F)(F)F)cnc2OCCO)c2cc(/C=C/c3c(Cl)cccc3C(F)F)ccc2O1 [Example 89EM, (S,E)-3-(6-(2-chloro-6-(difluoromethyl)styryl)-4-((2-(2-hydroxyethoxy)-5-(trifluoromethyl)pyridin-3-yl)sulfonyl)-3,4-dihydro-2H-benzo[b][1,4]oxazin-2-yl)propanoic acid] |  | 
11 | 500 to 5000 | < 500 |  |  | CCOc1nn(CC)cc1S(=O)(=O)N1C[C@H](CCC(=O)OC)Oc2ccc(/C=C/c3ccccc3OC(F)(F)F)cc21 [Example 89BB, (S,E)-methyl 3-(4-((3-ethoxy-1-ethyl-1H-pyrazol-4-yl)sulfonyl)-6-(2-(trifluoromethoxy)styryl)-3,4-dihydro-2H-benzo[b][1,4]-oxazin-2-yl)propanoate] |  | 
12 | 500 to 5000 | < 500 |  |  | C/C(=C\c1ccc2c(c1)N(S(=O)(=O)c1cccc(OC(F)F)c1)C[C@H](CCC(=O)O)O2)c1c(F)cccc1Cl [Example 86O, (S,E)-3-(6-(2-(2-chloro-6-fluorophenyl)prop-1-en-1-yl)-4-((3-(difluoromethoxy)phenyl)-sulfonyl)-3,4-dihydro-2H-benzo[b][1,4]oxazin-2-yl)propanoic acid] |  | 
13 | < 500 | < 500 |  |  | COc1cc(S(=O)(=O)N2C[C@H](CC(C)(C)C(=O)O)Cc3ccc(OCc4c(F)cccc4Cl)cc32)ccc1F [Example 27, (S)-3-(7-((2-Chloro-6-fluorobenzyl)oxy)-1-((4-fluoro-3-methoxyphenyl)sulfonyl)-1,2,3,4-tetrahydroquinolin-3-yl)-2,2-dimethylpropanoic acid] |  | 
14 | 500 to 5000 | < 500 |  |  | CC1CCCC(=Cc2ccc3c(c2)N(S(=O)(=O)c2cc(C(F)(F)F)cnc2OCCO)C[C@H](CCC(=O)O)O3)C1 (stereo partly drawn) [Example 95U, 3-((2S)-4-((2-(2-hydroxyethoxy)-5-(trifluoromethyl)pyridin-3-yl)sulfonyl)-6-((3-methylcyclohexylidene)methyl)-3,4-dihydro-2H-benzo[b][1,4]oxazin-2-yl)propanoic acid] |  | 
15 | 500 to 5000 | < 500 |  |  | CCOc1ncc(C(F)(F)F)cc1S(=O)(=O)N1C[C@H](CCC(=O)OC)Oc2ccc(/C=C(\C)c3c(Cl)cccc3C(F)(F)F)cc21 [Example 76, Methyl (S,E)-3-(6-(2-(2-chloro-6-(trifluoromethyl)phenyl)prop-1-en-1-yl)-4-((2-ethoxy-5-(trifluoromethyl)pyridin-3-yl)sulfonyl)-3,4-dihydro-2H-benzo[b][1,4]oxazin-2-yl)propanoate] |  | 
16 | 500 to 5000 | < 500 |  |  | COC(=O)CC[C@H]1CN(S(=O)(=O)c2cccc(C(F)(F)F)c2)c2c(ccc(/C=C(\C)c3c(F)cccc3Cl)c2F)O1 [Example 61, Methyl (S,E)-3-(6-(2-(2-chloro-6-fluorophenyl)prop-1-en-1-yl)-5-fluoro-4-((3-(trifluoromethyl)phenyl)sulfonyl)-3,4-dihydro-2H-benzo[b][1,4]oxazin-2-yl)propanoate] |  | 
